Assay results as given in PMC6273807, “Identification of Selective ERRγ Inverse Agonists” (Molecules, 2016).

Experiments:
ERRγ [1] = target: T1, ERRγ (Homo sapiens, UniProt P62508); assay: TR-FRET (LanthaScreen) ERRγ binding assay; details: Table 1 screening; 2-fold serial dilution from 10 μM; read-out: ERRγ, IC50 (binding inhibition of ERRγ binding activity)
T1 construct: purchased Life Technologies
T1 sequence (P62508 233-457 limits assumed): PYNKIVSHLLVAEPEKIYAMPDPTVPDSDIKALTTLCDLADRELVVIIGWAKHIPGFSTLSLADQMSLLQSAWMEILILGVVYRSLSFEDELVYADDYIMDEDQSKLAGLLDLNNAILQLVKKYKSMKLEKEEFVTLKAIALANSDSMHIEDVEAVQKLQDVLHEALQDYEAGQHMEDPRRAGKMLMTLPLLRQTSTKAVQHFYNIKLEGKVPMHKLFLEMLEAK
Experimental: Initials creening was conducted using a well established TR-FRET based ERRγ binding assay as described in the Experimental section at a concentration of 10 μM. Serial dilutions of the synthesized compounds were used to calculate IC50 values for the binding affinity with ERRγ.
(§1) ERRγ binding assay was conducted with Lantascreen assay system (Life Technologies, Grand Island, NY, USA), which was based on TR-FRET, followed by manufacturer’s instruction. Briefly, compounds were serially diluted with 2-fold staring from 10 μM and 10 μL of each diluent was added in 384 well plate. Then, GST-conjugated ERRγ LBD (ligand-binding domain) was added to be 5 nM. Next, the mixture of fluorescien-conjugated coactivator PGC1a (final concentration to be 500 nM) and Tb-a-GST antibody (final concentration to be 5 nM) was added. The reaction mixture was incubated at rt in dark state for 1 h.

ERRα = target: T2, ERRα (Homo sapiens, UniProt P11474); assay: TR-FRET (LanthaScreen) ERRα binding assay; details: maximum concentration tested 10 μM
T2 construct: purchased Life Technologies
T2 sequence (P11474 193-421 limits assumed): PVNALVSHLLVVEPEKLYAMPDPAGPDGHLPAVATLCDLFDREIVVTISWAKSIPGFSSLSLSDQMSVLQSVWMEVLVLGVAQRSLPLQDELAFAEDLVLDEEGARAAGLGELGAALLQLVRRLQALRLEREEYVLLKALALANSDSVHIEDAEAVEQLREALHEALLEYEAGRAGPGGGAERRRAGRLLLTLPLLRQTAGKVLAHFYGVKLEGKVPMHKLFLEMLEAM
Experimental: as §1
(§2) ERRs and ERα binding assay used same assay system as ERRγ’s, Lanthascreen assay system. Therefore, procedure was same as ERRγ binding assay except tested enzymes (ERRα, ERRβ, ERα). Used reference compounds were 4-OHT 1 for ERα and ERRβ binding assay, and XCT790 for ERRα binding assay.

ERRβ = target: T3, ERRβ (Homo sapiens, UniProt O95718); assay: TR-FRET (LanthaScreen) ERRβ binding assay; details: maximum concentration tested 10 μM
T3 construct: purchased Life Technologies
T3 sequence (O95718 208-432 limits assumed): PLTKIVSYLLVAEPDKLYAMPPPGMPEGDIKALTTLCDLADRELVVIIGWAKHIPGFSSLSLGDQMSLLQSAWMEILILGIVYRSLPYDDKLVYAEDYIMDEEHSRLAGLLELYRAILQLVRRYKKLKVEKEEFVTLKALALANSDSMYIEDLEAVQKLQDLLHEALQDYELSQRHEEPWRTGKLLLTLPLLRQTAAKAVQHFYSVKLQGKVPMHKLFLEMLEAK
Experimental: as §1, §2

ERα = target: T4, ERα (Homo sapiens, UniProt P03372); assay: TR-FRET (LanthaScreen) ERα binding assay; details: maximum concentration tested 10 μM
T4 construct: purchased Life Technologies
T4 sequence (P03372 311-547 limits assumed): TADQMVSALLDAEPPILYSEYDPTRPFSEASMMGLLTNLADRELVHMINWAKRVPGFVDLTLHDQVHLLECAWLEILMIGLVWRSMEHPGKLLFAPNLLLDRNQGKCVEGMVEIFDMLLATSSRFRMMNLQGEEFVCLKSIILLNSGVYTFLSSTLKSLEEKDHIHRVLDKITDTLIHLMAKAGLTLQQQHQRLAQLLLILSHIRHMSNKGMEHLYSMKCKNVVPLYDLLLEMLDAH
Experimental: as §1, §2

ERRγ [2] = target: T5, ERRγ (Homo sapiens, UniProt P62508); assay: ERRγ functional assay: GAL4-ERRγ luciferase reporter gene in AD293 cells; assay type: cell-based
T5 sequence (P62508 233-458 limits assumed): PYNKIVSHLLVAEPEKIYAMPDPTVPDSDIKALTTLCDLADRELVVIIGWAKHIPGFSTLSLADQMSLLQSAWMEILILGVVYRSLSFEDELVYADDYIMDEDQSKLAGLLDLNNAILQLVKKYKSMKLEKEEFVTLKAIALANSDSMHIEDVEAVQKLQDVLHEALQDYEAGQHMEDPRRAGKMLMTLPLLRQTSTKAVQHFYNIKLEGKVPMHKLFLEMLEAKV
Experimental: Along with the binding assay campaign, functional activity was determined in order to validate the utility of the binding affinity in a cellular context as described in the Experimental.
Figure 2 Cell based reporter-gene assay screening of 16 analogs ERRγ binding activity in cell was measured by luciferase activity using co-transfection system with GAL4-ERRγ and pFR-luciferase reporter gene.
AD293 cells were cultured in Dulbecco’ modified Eagle medium (DMEM) High glucose supplemented with 0.5% FBS (Hyclone, Logan, UT, USA). After 24 h, culture media was changed with DMEM High glucose containing 10% FBS. DNA constructs, which includes pCMX-Gal4-ERRγ, pFR-luciferase reporter plasmid, pCMV-β-gal were transiently transfected into AD293 cells using TransIT-LT1 transfection reagent (Mirus, Madison, WI, USA) for 24 h. Then, transfected cells were treated with compounds for 24 h and harvested for detection of luciferase activity and β-gal activity. All cells were incubated at 37 °C under 5% CO2 in a humidified incubator [5].

CYP1A2 = target: T6, CYP1A2 (Homo sapiens, UniProt P05177); assay: CYP inhibition assay, cocktail, human liver microsomes (phenacetin O-deethylase); assay type: in vitro ADME; details: 10 μM, activity in presence of inhibitor as % of control
T6 sequence (P05177 1-516): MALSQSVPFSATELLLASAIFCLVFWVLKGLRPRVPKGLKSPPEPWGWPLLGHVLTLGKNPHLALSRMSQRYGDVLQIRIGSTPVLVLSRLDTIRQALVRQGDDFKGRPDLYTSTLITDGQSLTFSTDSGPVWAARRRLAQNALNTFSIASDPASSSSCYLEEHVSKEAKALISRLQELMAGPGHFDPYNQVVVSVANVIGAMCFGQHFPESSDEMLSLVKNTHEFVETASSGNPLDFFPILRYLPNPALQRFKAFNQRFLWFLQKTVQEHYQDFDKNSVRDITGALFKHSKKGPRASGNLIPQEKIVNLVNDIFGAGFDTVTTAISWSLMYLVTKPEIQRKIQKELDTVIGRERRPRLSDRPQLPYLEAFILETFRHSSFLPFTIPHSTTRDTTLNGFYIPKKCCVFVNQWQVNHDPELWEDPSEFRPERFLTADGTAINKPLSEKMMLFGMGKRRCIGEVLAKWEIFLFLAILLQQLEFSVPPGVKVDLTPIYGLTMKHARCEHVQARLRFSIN

CYP2C9 = CYP2C9 (Homo sapiens, UniProt P11712); assay: CYP inhibition assay, cocktail, human liver microsomes (tolbutamide 4-hydroxylase); assay type: in vitro ADME
Chain of CYP2C9 (P11712 whole entry): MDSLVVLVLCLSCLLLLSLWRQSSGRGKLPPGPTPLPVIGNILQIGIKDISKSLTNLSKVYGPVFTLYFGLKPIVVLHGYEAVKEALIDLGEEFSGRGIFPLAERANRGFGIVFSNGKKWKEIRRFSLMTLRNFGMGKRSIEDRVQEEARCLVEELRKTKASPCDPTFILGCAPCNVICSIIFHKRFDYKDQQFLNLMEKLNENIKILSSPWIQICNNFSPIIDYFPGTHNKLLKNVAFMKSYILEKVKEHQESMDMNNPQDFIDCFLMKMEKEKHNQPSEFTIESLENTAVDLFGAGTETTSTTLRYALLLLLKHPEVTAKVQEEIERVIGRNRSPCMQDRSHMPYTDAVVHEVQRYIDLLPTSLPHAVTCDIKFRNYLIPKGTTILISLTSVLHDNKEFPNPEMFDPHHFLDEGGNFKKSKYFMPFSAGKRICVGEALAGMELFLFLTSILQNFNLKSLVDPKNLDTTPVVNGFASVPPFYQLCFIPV

CYP2C19 = CYP2C19 (Homo sapiens, UniProt P33261); assay: CYP inhibition assay, cocktail, human liver microsomes (S-mephenytoin 4-hydroxylase); assay type: in vitro ADME; details: 10 μM, activity in presence of inhibitor as % of control
Chain of CYP2C19 (P33261 whole entry): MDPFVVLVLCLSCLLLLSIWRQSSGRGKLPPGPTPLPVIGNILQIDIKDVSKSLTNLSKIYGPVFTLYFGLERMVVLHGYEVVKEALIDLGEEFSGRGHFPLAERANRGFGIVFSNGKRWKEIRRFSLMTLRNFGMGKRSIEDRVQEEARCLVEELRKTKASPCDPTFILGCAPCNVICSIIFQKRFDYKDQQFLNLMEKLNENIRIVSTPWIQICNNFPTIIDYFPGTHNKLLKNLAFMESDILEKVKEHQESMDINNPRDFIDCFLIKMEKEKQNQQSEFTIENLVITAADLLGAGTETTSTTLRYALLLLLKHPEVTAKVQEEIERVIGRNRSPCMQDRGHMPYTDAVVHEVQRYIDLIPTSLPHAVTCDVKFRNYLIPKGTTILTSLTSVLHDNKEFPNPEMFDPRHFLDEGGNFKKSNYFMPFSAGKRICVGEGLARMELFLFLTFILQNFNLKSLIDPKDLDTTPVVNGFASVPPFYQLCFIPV

CYP2D6 = CYP2D6 (Homo sapiens, UniProt P10635); assay: CYP inhibition assay, cocktail, human liver microsomes (dextromethorphan O-demethylase); assay type: in vitro ADME; details: 10 μM, activity in presence of inhibitor as % of control
Chain of CYP2D6 (P10635 whole entry): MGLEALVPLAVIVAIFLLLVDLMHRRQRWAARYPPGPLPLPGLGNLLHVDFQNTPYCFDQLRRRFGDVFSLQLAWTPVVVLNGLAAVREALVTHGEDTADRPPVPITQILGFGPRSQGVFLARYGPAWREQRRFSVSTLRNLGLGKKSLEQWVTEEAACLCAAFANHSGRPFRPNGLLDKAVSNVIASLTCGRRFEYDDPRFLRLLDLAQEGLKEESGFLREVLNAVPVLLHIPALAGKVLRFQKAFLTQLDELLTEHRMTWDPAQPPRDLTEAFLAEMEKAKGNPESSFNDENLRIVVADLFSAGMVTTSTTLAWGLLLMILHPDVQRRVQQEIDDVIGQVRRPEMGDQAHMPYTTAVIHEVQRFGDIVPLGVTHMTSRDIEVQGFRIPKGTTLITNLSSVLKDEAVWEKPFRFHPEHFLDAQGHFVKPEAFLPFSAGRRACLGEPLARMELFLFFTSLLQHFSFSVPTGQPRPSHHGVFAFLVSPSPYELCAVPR

CYP3A = assay: CYP inhibition assay, cocktail, human liver microsomes (midazolam 1'-hydroxylase); assay type: in vitro ADME; details: 10 μM, activity in presence of inhibitor as % of control
hERG channel = hERG channel (Homo sapiens, UniProt Q12809); assay: hERG channel binding assay (predictor hERG fluorescence polarization)
Chain of hERG channel (Q12809 whole entry): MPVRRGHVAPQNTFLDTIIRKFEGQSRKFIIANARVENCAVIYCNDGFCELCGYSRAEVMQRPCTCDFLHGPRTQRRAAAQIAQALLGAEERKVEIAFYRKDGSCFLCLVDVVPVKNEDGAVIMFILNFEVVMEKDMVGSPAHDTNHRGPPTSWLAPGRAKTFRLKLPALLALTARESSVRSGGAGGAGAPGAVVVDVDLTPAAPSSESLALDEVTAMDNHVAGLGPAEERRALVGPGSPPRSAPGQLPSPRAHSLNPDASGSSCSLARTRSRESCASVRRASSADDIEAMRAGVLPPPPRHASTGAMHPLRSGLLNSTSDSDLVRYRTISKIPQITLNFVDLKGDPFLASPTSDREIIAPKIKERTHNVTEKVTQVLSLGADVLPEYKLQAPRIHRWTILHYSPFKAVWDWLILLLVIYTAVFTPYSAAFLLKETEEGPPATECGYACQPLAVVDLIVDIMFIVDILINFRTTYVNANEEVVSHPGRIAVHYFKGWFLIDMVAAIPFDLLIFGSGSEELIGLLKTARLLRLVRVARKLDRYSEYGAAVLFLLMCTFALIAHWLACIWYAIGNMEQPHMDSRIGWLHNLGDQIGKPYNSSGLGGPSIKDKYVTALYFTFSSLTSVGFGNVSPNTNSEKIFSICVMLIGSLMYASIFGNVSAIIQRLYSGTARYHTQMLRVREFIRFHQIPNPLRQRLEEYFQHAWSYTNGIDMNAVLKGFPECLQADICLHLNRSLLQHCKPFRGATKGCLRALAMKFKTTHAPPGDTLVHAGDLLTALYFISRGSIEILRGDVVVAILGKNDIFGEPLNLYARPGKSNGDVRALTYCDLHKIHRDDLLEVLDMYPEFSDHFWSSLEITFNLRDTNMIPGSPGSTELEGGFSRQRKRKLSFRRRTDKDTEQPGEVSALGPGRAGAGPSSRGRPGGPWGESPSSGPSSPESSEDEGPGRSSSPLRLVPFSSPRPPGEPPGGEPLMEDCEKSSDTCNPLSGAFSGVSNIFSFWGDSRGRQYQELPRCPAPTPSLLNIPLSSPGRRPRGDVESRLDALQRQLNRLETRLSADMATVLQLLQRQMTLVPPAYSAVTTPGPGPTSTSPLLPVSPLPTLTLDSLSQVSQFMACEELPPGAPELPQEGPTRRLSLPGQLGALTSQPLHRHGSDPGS
Experimental: hERG channel binding assay was performed using predictor hERG fluorescence polarization assay (Cat.No. PV5365, Invitrogen, Grand Island, NY, USA) according to the manufacturer’s instructions. […] Fluorescence intensity (Excitation at 530 nm, Emission at 590 nm) was measured using a multi-mode microplate reader Synergy Neo (Biotek, Winooski, VT, USA).

CN(C)CCOc1ccc(/C(=C(/CCCO)c2ccc3cnn(C)c3c2)c2ccc(O)cc2)cc1 [Compound 15g, (Z)-4-(1-(4-(2-(Dimethylamino)ethoxy)phenyl)-5-hydroxy-2-(1-methyl-1H-indazol-6-yl)pent-1-en-1-yl)phenol]
IC50 (ERRγ [1]): 0.44 µM
Binding Assay, IC50, ERRα (ERRα): no observable affinity
IC50 (ERRα): > 10 µM
Binding Assay, IC50, ERRβ (ERRβ): no observable affinity
IC50 (ERRβ): > 10 µM
IC50 (ERα): > 10 µM
ERRγ Functional Assay at 10 μM (% of Control) (ERRγ [2]; 10 μM, AD293 cells, 24 h treatment, luciferase activity): 5.4 % of Control
ERRγ functional activity in the cellular system (in words) (ERRγ [2]; 10 μM, reporter-gene assay, compared with control ligand 4): comparable regression of the ERRγ transcriptional activity
inhibition at 10 µM (ERRγ [2]; AD293, 24 h, screening concentration of 10 μM, read-out: transcriptional repression): 95%
CYP Inhibition (% of Control), 1A2 (CYP1A2): >100 % of Control
CYP Inhibition (% of Control), 2C9 (CYP2C9; 10 μM, human liver microsomes, activity in presence of inhibitor as % of control): 83 % of Control
inhibition of the CYP 2C9 subtype (CYP2C9; at a concentration of 10 μM): 17%
CYP Inhibition (% of Control), 2C19 (CYP2C19): 95 % of Control
CYP Inhibition (% of Control), 2D6 (CYP2D6): 99 % of Control
CYP Inhibition (% of Control), 3A4 (CYP3A): 88 % of Control
IC50 (hERG channel): > 30 µM
